Inconclusive results and toxic doses are left out. Cut-off read from the data, not from the text of the source: active = T/C of 150% or more; inactive = T/C below 125%.
Tested on: L1210 leukemia ip in BDF1 mice, survival T/C
Assay: NCI In Vivo Anticancer Drug Screen. Data for tumor model L1210 Leukemia (intraperitoneal) in B6D2F1 (BDF1) mice
Conditions: endpoint: mean survival time, higher = longer survival
Procedure, shortened: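 Each compound was tested against a transplantable tumor grown in mice. The endpoint was survival, with treated animals benchmarked against vehicle controls as a simple ratio.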

[1] = dose: 100.0 mg/kg/injection, schedule: Q01DX001 (ip), vehicle: Klucel (hydroxypropylcellulose) (HPC)
[2] = dose: 100.0 mg/kg/injection, schedule: Q01DX009 (ip), vehicle: Klucel (hydroxypropylcellulose) (HPC)
[3] = dose: 100.0 mg/kg/injection, schedule: Q04DX003 (ip), vehicle: Klucel (hydroxypropylcellulose) (HPC)
[4] = dose: 200.0 mg/kg/injection, schedule: Q01DX001 (ip), vehicle: Klucel (hydroxypropylcellulose) (HPC)
[5] = dose: 200.0 mg/kg/injection, schedule: Q01DX009 (ip), vehicle: Klucel (hydroxypropylcellulose) (HPC)
[6] = dose: 200.0 mg/kg/injection, schedule: Q04DX003 (ip), vehicle: Klucel (hydroxypropylcellulose) (HPC)
[7] = dose: 400.0 mg/kg/injection, schedule: Q01DX009 (ip), vehicle: Klucel (hydroxypropylcellulose) (HPC)
[8] = dose: 400.0 mg/kg/injection, schedule: Q04DX003 (ip), vehicle: Klucel (hydroxypropylcellulose) (HPC)
[9] = dose: 50.0 mg/kg/injection, schedule: Q01DX001 (ip), vehicle: carboxymethylcellulose (CMC)
[10] = dose: 100.0 mg/kg/injection, schedule: Q01DX001 (ip), vehicle: carboxymethylcellulose (CMC)
[11] = dose: 200.0 mg/kg/injection, schedule: Q01DX001 (ip), vehicle: carboxymethylcellulose (CMC)
[12] = dose: 100.0 mg/kg/injection, schedule: Q01DX001 (ip), vehicle: saline
[13] = dose: 100.0 mg/kg/injection, schedule: Q04DX003 (ip), vehicle: saline
[14] = dose: 200.0 mg/kg/injection, schedule: Q01DX001 (ip), vehicle: saline
[15] = dose: 200.0 mg/kg/injection, schedule: Q04DX003 (ip), vehicle: saline
[16] = dose: 400.0 mg/kg/injection, schedule: Q01DX001 (ip), vehicle: saline
[17] = dose: 400.0 mg/kg/injection, schedule: Q04DX003 (ip), vehicle: saline
[18] = dose: 100.0 mg/kg/injection, schedule: Q01DX009 (ip), vehicle: saline with Tween-80
[19] = dose: 200.0 mg/kg/injection, schedule: Q01DX009 (ip), vehicle: saline with Tween-80
[20] = dose: 100.0 mg/kg/injection, schedule: Q04DX003 (ip), vehicle: saline with Tween-80
[21] = dose: 200.0 mg/kg/injection, schedule: Q04DX003 (ip), vehicle: saline with Tween-80
[22] = dose: 400.0 mg/kg/injection, schedule: Q04DX003 (ip), vehicle: saline with Tween-80
[23] = dose: 50.0 mg/kg/injection, schedule: Q01DX001 (ip), vehicle: Klucel (hydroxypropylcellulose) (HPC)
[24] = dose: 400.0 mg/kg/injection, schedule: Q01DX001 (ip), vehicle: carboxymethylcellulose (CMC)

Measured: T/C

O=C(NC(=O)C(Cl)Cl)Nc1ccc2c(c1)Cc1ccccc1-2
inactive: [1] 95 % of control | [2] 100 % of control | [3] 102 % of control | [4] 100 % of control | [5] 98 % of control | [6] 96 % of control | dose: 400.0 mg/kg/injection, schedule: Q01DX001 (ip), vehicle: Klucel (hydroxypropylcellulose) (HPC) 100 % of control | [7] 104 % of control | [8] 96 % of control

OC(c1cc(-c2cccc(Cl)c2)nc2ccccc12)C1CCCCN1 (stereo not drawn)
inactive: [9] 92 % of control | [10] 90 % of control | [11] 95 % of control

O=C(CSc1ccc([N+](=O)[O-])cc1)c1ccc(Br)cc1
inactive: [12] 87 % of control | [13] 95 % of control | [14] 87 % of control | [15] 90 % of control | [16] 94 % of control | [17] 90 % of control

Cc1cc(C)n2ncnc2n1
inactive: [18] 105 % of control | [19] 99 % of control

Cc1ccc(S(=O)(=O)[O][Sn-]([CH2]c2ccccc2)([CH2]c2ccccc2)[CH2]c2ccccc2)cc1
inactive: dose: 50.0 mg/kg/injection, schedule: Q01DX009 (ip), vehicle: olive oil, sesame oil, peanut oil 97 % of control | dose: 100.0 mg/kg/injection, schedule: Q01DX009 (ip), vehicle: olive oil, sesame oil, peanut oil 92 % of control | dose: 100.0 mg/kg/injection, schedule: Q04DX002 (ip), vehicle: alcohol 97 % of control | dose: 200.0 mg/kg/injection, schedule: Q04DX002 (ip), vehicle: alcohol 90 % of control

CCC(C)(C)c1ccc(O)cc1
inactive: dose: 50.0 mg/kg/injection, schedule: Q01DX009 (ip), vehicle: saline with Tween-80 102 % of control | [18] 100 % of control

CC(=O)OCC1OC(NC(=O)N(CCCl)N=O)C(OC(C)=O)C(OC(C)=O)C1OC(C)=O (stereo not drawn)
active: dose: 6.0 mg/kg/injection, schedule: Q01DX001 (ip), vehicle: saline with Tween-80 246 % of control | dose: 9.0 mg/kg/injection, schedule: Q01DX001 (ip), vehicle: saline with Tween-80 342 % of control | dose: 13.0 mg/kg/injection, schedule: Q01DX001 (ip), vehicle: saline with Tween-80 428 % of control | dose: 20.0 mg/kg/injection, schedule: Q01DX001 (ip), vehicle: saline with Tween-80 393 % of control | dose: 30.0 mg/kg/injection, schedule: Q01DX001 (ip), vehicle: saline with Tween-80 324 % of control

COc1ccc(Cc2ccc3c(C)cc(Cl)nc3c2)cc1
inactive: [12] 98 % of control | [14] 103 % of control | [16] 108 % of control

CS(=O)(=O)OCC1CCCCO1 (stereo not drawn)
inactive: [2] 91 % of control | [3] 101 % of control | [5] 102 % of control | [6] 102 % of control | [7] 106 % of control | [8] 111 % of control

Nc1ccc(OCCCCNC(=O)c2ccc(S(=O)(=O)F)cc2)c(Cl)c1
inactive: [18] 98 % of control | [20] 97 % of control | [19] 102 % of control | [21] 97 % of control | [22] 97 % of control

COCC/C(COC)=N/N
inactive: dose: 50.0 mg/kg/injection, schedule: Q01DX001 (ip), vehicle: saline 103 % of control | [12] 103 % of control | [14] 122 % of control

Cc1cc(Cl)c(N)[c]([Hg][I])c1F
inactive: dose: 12.0 mg/kg/injection, schedule: Q01DX001 (ip), vehicle: Klucel (hydroxypropylcellulose) (HPC) 90 % of control | dose: 25.0 mg/kg/injection, schedule: Q01DX001 (ip), vehicle: Klucel (hydroxypropylcellulose) (HPC) 86 % of control | [23] 92 % of control

CC(C)OC(=S)SCC(=O)c1ccc(C(F)(F)F)cc1
inactive: dose: 100.0 mg/kg/injection, schedule: Q04DX002 (ip), vehicle: Klucel (hydroxypropylcellulose) (HPC) 96 % of control | dose: 200.0 mg/kg/injection, schedule: Q04DX002 (ip), vehicle: Klucel (hydroxypropylcellulose) (HPC) 92 % of control | dose: 400.0 mg/kg/injection, schedule: Q04DX002 (ip), vehicle: Klucel (hydroxypropylcellulose) (HPC) 92 % of control

BrC1C2CCC(C2)C1Br (stereo not drawn)
inactive: [12] 102 % of control | [14] 100 % of control | [16] 100 % of control

CCCCCCCCCCSS(=O)(=O)O
inactive: dose: 100.0 mg/kg/injection, schedule: Q01DX001 (ip), vehicle: other 98 % of control | dose: 400.0 mg/kg/injection, schedule: Q01DX001 (ip), vehicle: other 86 % of control

O=C(c1ccc([N+](=O)[O-])cc1)C1NC1c1ccc([N+](=O)[O-])cc1 (stereo not drawn)
inactive: [9] 108 % of control | [10] 100 % of control | [11] 105 % of control | [24] 97 % of control

[CH3][Sb]1([CH3])([CH3])[O]S(=O)(=O)[O]1
inactive: dose: 75.0 mg/kg/injection, schedule: Q01DX001 (ip), vehicle: saline 97 % of control | dose: 150.0 mg/kg/injection, schedule: Q01DX001 (ip), vehicle: saline 102 % of control | dose: 300.0 mg/kg/injection, schedule: Q01DX001 (ip), vehicle: saline 105 % of control

O=C(NCCNC(=O)c1cccc([N+](=O)[O-])c1O)c1cccc([N+](=O)[O-])c1O
inactive: [20] 96 % of control | [21] 95 % of control | [22] 90 % of control

Nc1nc(N)c(-c2ccc(Cl)c(Cl)c2)c(COc2ccc(NC(=O)Nc3ccc(S(=O)(=O)F)c(Cl)c3)c(Cl)c2)n1
inactive: dose: 75.0 mg/kg/injection, schedule: Q01DX001 (ip), vehicle: saline with Tween-80 90 % of control | dose: 150.0 mg/kg/injection, schedule: Q01DX001 (ip), vehicle: saline with Tween-80 98 % of control

OC1COCOC1 (tested in a mixture with another compound)
inactive: dose: 100.0 mg/kg/injection, schedule: Q01DX009 (ip), vehicle: saline 104 % of control | [13] 105 % of control | dose: 200.0 mg/kg/injection, schedule: Q01DX009 (ip), vehicle: saline 104 % of control | [15] 102 % of control | dose: 400.0 mg/kg/injection, schedule: Q01DX009 (ip), vehicle: saline 111 % of control | [17] 109 % of control

O=C1c2ccccc2C(=O)N1CCCO
inactive: [23] 96 % of control | [1] 100 % of control | [4] 102 % of control

O=C(COCC(=O)N/N=C/c1ccccc1Cl)N/N=C\c1ccccc1Cl
inactive: [2] 93 % of control | [5] 95 % of control

CN(C)N=Nc1cn(C)c(=O)[nH]c1=O
inactive: dose: 50.0 mg/kg/injection, schedule: Q04DX003 (ip), vehicle: water 114 % of control | dose: 400.0 mg/kg/injection, schedule: Q04DX003 (ip), vehicle: water 112 % of control

COc1ccc(C23OC2Oc2cc(OC4CCCCO4)ccc2C3O)cc1 (stereo not drawn)
inactive: dose: 50.0 mg/kg/injection, schedule: Q01DX001 (sc), vehicle: steriod suspending solution 101 % of control | dose: 100.0 mg/kg/injection, schedule: Q01DX001 (sc), vehicle: steriod suspending solution 101 % of control | dose: 200.0 mg/kg/injection, schedule: Q01DX001 (sc), vehicle: steriod suspending solution 101 % of control | dose: 400.0 mg/kg/injection, schedule: Q01DX001 (sc), vehicle: steriod suspending solution 95 % of control

O=C([O-])C1CCCCC1[I+]c1ccccc1 (stereo not drawn)
inactive: [13] 100 % of control | [15] 98 % of control

C/C(=C/C=C(/C)C(=O)O)C(=O)O
inactive: [10] 95 % of control | [3] 101 % of control | [11] 95 % of control | [6] 115 % of control | [24] 98 % of control | [8] 93 % of control

C[S+](C)(=O)/C=C(\[O-])Nc1ccccc1
inactive: [2] 101 % of control | [3] 101 % of control | [5] 92 % of control | [6] 97 % of control | [7] 97 % of control | [8] 103 % of control

O=C(N/N=C/c1ccccc1)c1ccc(Cl)cc1
inactive: [3] 97 % of control | [6] 100 % of control | [8] 90 % of control

CCOC(=O)C1=NN(c2ccccc2)C(=O)C1N=Nc1ccc(S(=O)(=O)Nc2ncccn2)cc1 (stereo not drawn)
inactive: [12] 98 % of control | [14] 96 % of control | [16] 101 % of control

Reference: PubChem BioAssay AID248 (DTP/NCI, 2004)
